Reference: BindingDB's records for doi:10.1021/acs.jmedchem.7b00585 (The Scripps Research Institute, 2017)

These molecules were tested against T1, Estrogen receptor (Homo sapiens, UniProt P03372) (assay: ChEBML_1664056).
T1 sequence (P03372 whole entry): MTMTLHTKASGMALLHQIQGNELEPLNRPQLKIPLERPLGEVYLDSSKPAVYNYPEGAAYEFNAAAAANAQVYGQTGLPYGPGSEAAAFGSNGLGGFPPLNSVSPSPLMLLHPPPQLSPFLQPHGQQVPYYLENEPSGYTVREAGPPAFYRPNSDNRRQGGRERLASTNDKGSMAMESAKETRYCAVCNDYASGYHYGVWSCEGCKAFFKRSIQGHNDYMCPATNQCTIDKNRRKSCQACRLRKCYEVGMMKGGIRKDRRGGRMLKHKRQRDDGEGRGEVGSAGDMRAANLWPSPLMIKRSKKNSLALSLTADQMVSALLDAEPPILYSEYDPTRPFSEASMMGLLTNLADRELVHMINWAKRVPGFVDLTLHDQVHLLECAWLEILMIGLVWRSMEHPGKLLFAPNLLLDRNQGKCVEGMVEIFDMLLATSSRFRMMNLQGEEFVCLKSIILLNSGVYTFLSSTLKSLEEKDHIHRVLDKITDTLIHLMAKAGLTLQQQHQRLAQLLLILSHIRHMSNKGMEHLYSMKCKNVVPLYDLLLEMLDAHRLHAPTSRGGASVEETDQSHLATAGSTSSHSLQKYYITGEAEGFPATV
Source text: (§1) Displacement of [3H]estradiol from full-length human ERalpha receptor by scintillation counting

SMILES	Ki [pM]
CCCCNC(=O)/C=C/c1ccc(C(=C2C3CC4CC(C3)CC2C4)c2ccc(O)cc2)cc1	710

The molecules below were run against T1, Estrogen receptor (assay: as §1).

SMILES	Ki [pM]
CCCCN(C)C(=O)/C=C/c1ccc(C(=C2C3CC4CC(C3)CC2C4)c2ccc(O)cc2)cc1	710
O=C(/C=C/c1ccc(C(=C2C3CC4CC(C3)CC2C4)c2ccc(O)cc2)cc1)OCCCO	710
COC(=O)/C=C/c1ccc(C(=C2C3CC4CC(C3)CC2C4)c2ccc(O)cc2)cc1	430
O=C(/C=C/c1ccc(C(=C2C3CC4CC(C3)CC2C4)c2ccc(O)cc2)cc1)OCCO	370
O=C(/C=C/c1ccc(C(=C2C3CC4CC(C3)CC2C4)c2ccc(O)cc2)cc1)NCCCO	430
NCCCNC(=O)/C=C/c1ccc(C(=C2C3CC4CC(C3)CC2C4)c2ccc(O)cc2)cc1	370
